Source: ChEMBL document CHEMBL1201862, “PubChem BioAssay data set” (2004)
Active and inactive are the calls of the source.

Assays:
[1] = molecular target: T1, Apoptotic protease-activating factor 1 (Homo sapiens, UniProt O14727); format: functional
T1 sequence (O14727 whole entry): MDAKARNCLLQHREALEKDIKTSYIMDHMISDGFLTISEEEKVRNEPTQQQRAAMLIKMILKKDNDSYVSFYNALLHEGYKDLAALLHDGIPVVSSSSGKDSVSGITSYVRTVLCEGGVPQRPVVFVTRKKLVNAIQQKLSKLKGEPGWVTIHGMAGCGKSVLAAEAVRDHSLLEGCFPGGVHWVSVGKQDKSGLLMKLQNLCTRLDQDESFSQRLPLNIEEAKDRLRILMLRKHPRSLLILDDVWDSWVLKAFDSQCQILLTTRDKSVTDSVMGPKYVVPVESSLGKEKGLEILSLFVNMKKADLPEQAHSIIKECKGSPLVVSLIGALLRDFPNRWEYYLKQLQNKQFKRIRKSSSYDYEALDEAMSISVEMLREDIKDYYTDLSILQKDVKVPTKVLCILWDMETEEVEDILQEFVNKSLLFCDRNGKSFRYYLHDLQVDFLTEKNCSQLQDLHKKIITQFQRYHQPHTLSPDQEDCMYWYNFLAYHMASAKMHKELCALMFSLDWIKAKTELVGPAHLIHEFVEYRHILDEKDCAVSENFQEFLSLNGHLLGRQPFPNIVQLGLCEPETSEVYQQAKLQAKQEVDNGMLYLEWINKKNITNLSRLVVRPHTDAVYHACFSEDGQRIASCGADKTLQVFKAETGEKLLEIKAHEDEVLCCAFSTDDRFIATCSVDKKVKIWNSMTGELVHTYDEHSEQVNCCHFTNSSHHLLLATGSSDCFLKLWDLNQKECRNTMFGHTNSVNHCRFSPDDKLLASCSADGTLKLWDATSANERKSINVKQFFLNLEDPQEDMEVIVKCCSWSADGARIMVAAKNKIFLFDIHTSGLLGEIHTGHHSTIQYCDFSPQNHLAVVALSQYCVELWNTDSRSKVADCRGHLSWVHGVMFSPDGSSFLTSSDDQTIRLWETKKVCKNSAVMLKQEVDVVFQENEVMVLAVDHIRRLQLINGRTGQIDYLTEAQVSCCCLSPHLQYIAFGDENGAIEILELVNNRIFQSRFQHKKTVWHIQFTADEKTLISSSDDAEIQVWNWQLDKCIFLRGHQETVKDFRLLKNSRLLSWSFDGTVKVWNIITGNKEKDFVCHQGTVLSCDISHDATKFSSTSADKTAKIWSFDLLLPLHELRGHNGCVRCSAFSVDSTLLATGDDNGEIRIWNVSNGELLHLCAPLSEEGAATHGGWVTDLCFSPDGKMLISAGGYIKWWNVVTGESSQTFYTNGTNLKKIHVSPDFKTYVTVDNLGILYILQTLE

Protein RecA = molecular target: T2, Protein RecA (Mycobacterium tuberculosis, UniProt P9WHJ3); assay: Fluorescence Cell-Free Homogeneous Dose Retest to Identify Inhibitors of RecA-Intein Splicing Activity. [Related pubchem assays (depositor defined):AID2097, AID2223, AID489010, AID492950]; format: functional
T2 sequence (P9WHJ3 whole entry): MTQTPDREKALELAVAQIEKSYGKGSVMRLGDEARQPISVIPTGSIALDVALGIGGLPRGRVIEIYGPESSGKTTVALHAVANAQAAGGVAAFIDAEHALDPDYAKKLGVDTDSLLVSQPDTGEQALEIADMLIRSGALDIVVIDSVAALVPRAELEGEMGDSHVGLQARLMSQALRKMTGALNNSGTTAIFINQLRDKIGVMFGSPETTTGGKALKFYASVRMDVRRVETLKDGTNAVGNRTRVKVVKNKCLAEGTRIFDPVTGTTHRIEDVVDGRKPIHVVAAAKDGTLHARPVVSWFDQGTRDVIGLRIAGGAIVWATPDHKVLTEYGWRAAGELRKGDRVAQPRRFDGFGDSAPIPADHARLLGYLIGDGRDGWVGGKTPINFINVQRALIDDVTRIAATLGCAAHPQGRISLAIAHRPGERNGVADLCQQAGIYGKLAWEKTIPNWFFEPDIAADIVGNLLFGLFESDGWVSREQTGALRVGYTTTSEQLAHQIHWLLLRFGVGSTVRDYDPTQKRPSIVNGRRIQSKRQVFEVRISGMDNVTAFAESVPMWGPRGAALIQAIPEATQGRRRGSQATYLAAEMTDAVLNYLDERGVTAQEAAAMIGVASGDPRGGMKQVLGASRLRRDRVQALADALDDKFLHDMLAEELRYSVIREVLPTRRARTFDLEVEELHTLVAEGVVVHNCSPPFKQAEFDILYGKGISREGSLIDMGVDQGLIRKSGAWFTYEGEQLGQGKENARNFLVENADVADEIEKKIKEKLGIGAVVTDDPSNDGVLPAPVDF

[2] = molecular target: T3, Replicative DNA helicase DnaB (Mycobacterium tuberculosis, UniProt P9WMR3); assay: DnaB intein splicing inhibitors, dose response, biochemical, cell-free fluorescence (AID 449749); format: functional
T3 sequence (P9WMR3 whole entry): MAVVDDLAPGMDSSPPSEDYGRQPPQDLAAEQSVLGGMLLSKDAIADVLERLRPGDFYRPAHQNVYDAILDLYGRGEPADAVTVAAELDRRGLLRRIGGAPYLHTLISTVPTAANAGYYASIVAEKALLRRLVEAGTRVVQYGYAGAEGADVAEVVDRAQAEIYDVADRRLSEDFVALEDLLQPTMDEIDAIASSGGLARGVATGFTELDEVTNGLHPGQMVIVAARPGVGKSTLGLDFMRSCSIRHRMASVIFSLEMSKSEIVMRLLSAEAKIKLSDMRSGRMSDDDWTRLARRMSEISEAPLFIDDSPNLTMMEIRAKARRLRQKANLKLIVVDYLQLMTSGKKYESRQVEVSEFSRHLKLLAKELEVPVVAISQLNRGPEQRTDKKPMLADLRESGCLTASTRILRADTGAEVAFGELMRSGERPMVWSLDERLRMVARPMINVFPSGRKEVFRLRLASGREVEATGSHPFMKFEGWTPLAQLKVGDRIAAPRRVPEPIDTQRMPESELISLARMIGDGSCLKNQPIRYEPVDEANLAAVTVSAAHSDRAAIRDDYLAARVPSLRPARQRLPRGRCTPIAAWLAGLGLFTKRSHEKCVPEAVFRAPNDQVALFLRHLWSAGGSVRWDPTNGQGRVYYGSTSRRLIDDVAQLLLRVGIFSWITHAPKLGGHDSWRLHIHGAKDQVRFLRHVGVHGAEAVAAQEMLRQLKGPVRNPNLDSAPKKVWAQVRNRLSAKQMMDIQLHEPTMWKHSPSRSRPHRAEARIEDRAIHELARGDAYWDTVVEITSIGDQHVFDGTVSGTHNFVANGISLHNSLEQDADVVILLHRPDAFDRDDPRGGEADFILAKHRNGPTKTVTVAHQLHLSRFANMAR

Phospholipase A2 = Phospholipase A2 (Homo sapiens, UniProt P04054); format: functional;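 also: confirmatory dose-response counterscreen on phospholipase A2, testing hits that came from an ultra-high-throughput screen for ATG4B inhibitors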
Large T antigen = Large T antigen (Simian virus 40, UniProt P03070); format: functional, Betapolyomavirus macacae;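 also: Confirmatory-stage PubChem screen for compounds that inhibit SV40 T antigen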
Large T antigen, sequence (P03070 whole entry): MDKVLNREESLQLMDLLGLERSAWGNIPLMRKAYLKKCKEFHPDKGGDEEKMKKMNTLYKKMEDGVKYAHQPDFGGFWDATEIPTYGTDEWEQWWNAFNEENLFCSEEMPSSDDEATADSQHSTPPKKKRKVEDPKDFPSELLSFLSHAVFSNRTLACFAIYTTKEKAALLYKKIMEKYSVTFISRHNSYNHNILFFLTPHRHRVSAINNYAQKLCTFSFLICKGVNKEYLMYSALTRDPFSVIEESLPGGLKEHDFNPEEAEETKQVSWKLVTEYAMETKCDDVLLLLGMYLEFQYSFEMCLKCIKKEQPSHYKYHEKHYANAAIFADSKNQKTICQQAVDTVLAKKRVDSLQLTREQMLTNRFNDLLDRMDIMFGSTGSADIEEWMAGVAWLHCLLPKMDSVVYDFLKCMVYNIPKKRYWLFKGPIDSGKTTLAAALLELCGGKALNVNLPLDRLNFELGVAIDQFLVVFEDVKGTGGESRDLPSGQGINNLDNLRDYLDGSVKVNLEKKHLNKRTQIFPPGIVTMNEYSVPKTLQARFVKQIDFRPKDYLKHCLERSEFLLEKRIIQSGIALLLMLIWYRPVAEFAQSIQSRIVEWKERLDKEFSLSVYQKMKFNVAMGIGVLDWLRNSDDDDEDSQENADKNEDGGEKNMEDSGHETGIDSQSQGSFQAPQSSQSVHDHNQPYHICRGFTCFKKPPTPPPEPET

Phospholipase A2, sequence (P04054 whole entry): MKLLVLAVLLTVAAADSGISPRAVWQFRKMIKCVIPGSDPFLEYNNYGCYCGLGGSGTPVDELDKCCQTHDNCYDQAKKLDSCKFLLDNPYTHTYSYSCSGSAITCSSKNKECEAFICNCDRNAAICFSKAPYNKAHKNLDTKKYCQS

| SMILES | IC50 [1] | EC50 (Protein RecA) | AC50 [2] | IC50 (Phospholipase A2) | IC50 (Large T antigen) |
| --- | --- | --- | --- | --- | --- |
| CCCCCCCCCCOC(=O)C[n+]1c(COc2ccccc2C)n(C)c2ccccc21 | 8.53 µM (active) | 7.26 µM (active) | 3.01 µM (active) |  |  |
| Oc1nc(Nc2ccccc2)cc2ccccc12 | 3.31 µM (active) | 1.9 µM (active) | > 380 µM (inactive) | > 80 µM (inactive) |  |
| COc1cc(OC)c(-c2c3cc(O)c(=O)cc-3oc3cc(O)c(O)cc23)cc1OC |  |  |  |  | 1.73 µM (active) |
